Reference: EPA's ToxValDB 9.5

System: Rattus norvegicus
Settings: short-term, duration: 28 days, oral, gavage, Sprague-Dawley

O=C(O)C(F)(F)C(F)(F)C(F)(F)C(F)(F)C(F)(F)F [Perfluorohexanoic acid] showed an LOEL (F, Clinical chemistry_Alanine aminotransferase) of 500 mg/kg-day, an NOEL (F, Clinical chemistry_Albumin) of 1000 mg/kg-day and an LOEL (F, Clinical chemistry_Albumin/globulin ratio) of 1000 mg/kg-day. It also gave an LOEL (F, Clinical chemistry_Alkaline phosphatase) of 1000 mg/kg-day, an LOEL (F, Clinical chemistry_Aspartate aminotransferase) of 500 mg/kg-day and an NOEL (F, Clinical chemistry_Cholesterol) of 1000 mg/kg-day. The NOEL (F, Clinical chemistry_Creatinine kinase) was 1000 mg/kg-day, the NOEL (F, Clinical chemistry_Direct bilirubin) was 1000 mg/kg-day and the NOEL (F, Clinical chemistry_Free thyroxine) was 1000 mg/kg-day. For the same molecule, the LOEL (F, Clinical chemistry_Globulin) was 1000 mg/kg-day, the NOEL (F, Clinical chemistry_Indirect bilirubin) was 1000 mg/kg-day and the NOEL (F, Clinical chemistry_Sorbitol dehydrogenase) was 1000 mg/kg-day. It also gave an NOEL (F, Clinical chemistry_Testosterone) of 1000 mg/kg-day, an NOEL (F, Clinical chemistry_Thyroid stimulating hormone) of 1000 mg/kg-day and an LOEL (F, Clinical chemistry_Total bile acids) of 1000 mg/kg-day. The LOEL (F, Clinical chemistry_Total protein) was 1000 mg/kg-day, the NOEL (F, Clinical chemistry_Total thyroxine) was 1000 mg/kg-day and the NOEL (F, Clinical chemistry_Total triiodothyronine) was 1000 mg/kg-day. It also gave an NOEL (F, Clinical chemistry_Triglycerides) of 1000 mg/kg-day, an LOEL (F, Gene expression_Acox1) of 500 mg/kg-day and an LOEL (F, Gene expression_Cyp2b1) of 62.6 mg/kg-day. For the same molecule, the LOEL (F, Gene expression_Cyp2b2) was 62.6 mg/kg-day, the LOEL (F, Gene expression_Cyp4a1) was 500 mg/kg-day and the LOEL (F, Hematology_Erythrocytes) was 250 mg/kg-day. For the same molecule, the LOEL (F, Hematology_Hematocrit) was 250 mg/kg-day, the LOEL (F, Hematology_Hemoglobin) was 250 mg/kg-day and the LOEL (F, Hematology_Mean corpuscular hemoglobin concentration) was 1000 mg/kg-day. For the same molecule, the LOEL (F, Hematology_Mean corpuscular volume) was 500 mg/kg-day, the LOEL (F, Hematology_Platelets) was 1000 mg/kg-day and the LOEL (F, Hematology_Reticulocytes) was 500 mg/kg-day. The NOEL (F, Nonneoplastic effects_Bone marrow - Hypocellularity) was 1000 mg/kg-day, the NOEL (F, Nonneoplastic effects_Forestomach - Epithelium, hyperplasia) was 1000 mg/kg-day and the NOEL (F, Nonneoplastic effects_Forestomach - Inflammation, chronic active) was 1000 mg/kg-day. For the same molecule, the LOEL (F, Nonneoplastic effects_Kidney - Nephropathy, chronic progressive) was 1000 mg/kg-day, the NOEL (F, Nonneoplastic effects_Liver - Hepatocyte, Necrosis) was 1000 mg/kg-day and the LOEL (F, Nonneoplastic effects_Liver - Hepatocyte, cytoplasmic alteration) was 1000 mg/kg-day. The LOEL (F, Nonneoplastic effects_Liver - Hepatocyte, hypertrophy) was 1000 mg/kg-day, the NOEL (F, Nonneoplastic effects_Liver - Hepatocyte, vacuolization cytoplasmic) was 1000 mg/kg-day and the NOEL (F, Nonneoplastic effects_Lymph nodes - Mandibular, atrophy) was 1000 mg/kg-day. The NOEL (F, Nonneoplastic effects_Lymph nodes - Mesenteric, atrophy) was 1000 mg/kg-day, the LOEL (F, Nonneoplastic effects_Nose - Olfactory epithelium, degeneration) was 250 mg/kg-day and the LOEL (F, Nonneoplastic effects_Nose - Olfactory epithelium, hyperplasia) was 250 mg/kg-day. It also gave an LOEL (F, Nonneoplastic effects_Nose - Olfactory epithelium, inflammation, suppurative) of 500 mg/kg-day, an NOEL (F, Nonneoplastic effects_Nose - Respiratory epithelium, hyperplasia) of 1000 mg/kg-day and an NOEL (F, Nonneoplastic effects_Nose - Respiratory epithelium, inflammation, chronic active) of 1000 mg/kg-day. For the same molecule, the NOEL (F, Nonneoplastic effects_Spleen - Atrophy) was 1000 mg/kg-day, the LOEL (F, Nonneoplastic effects_Spleen - Extramedullary hematopoiesis, increased) was 1000 mg/kg-day and the NOEL (F, Nonneoplastic effects_Thymus - Atrophy) was 1000 mg/kg-day. For the same molecule, the NOEL (F, Nonneoplastic effects_Thymus - Lymphocyte, apoptosis) was 1000 mg/kg-day, the NOEL (F, Nonneoplastic effects_Thyroid gland - Follicular cell hypertrophy) was 1000 mg/kg-day and the LOEL (F, Organ weights_Liver - Absolute) was 500 mg/kg-day. The LOEL (F, Organ weights_Liver - Relative) was 500 mg/kg-day, the NOEL (F, Organ weights_R. adrenal gland - Absolute) was 1000 mg/kg-day and the NOEL (F, Organ weights_R. adrenal gland - Relative) was 1000 mg/kg-day. For the same molecule, the LOEL (F, Organ weights_R. kidney - Absolute) was 1000 mg/kg-day, the LOEL (F, Organ weights_R. kidney - Relative) was 1000 mg/kg-day and the NOEL (F, Organ weights_Spleen - Absolute) was 1000 mg/kg-day. For the same molecule, the NOEL (F, Organ weights_Spleen - Relative) was 1000 mg/kg-day, the NOEL (F, Organ weights_Thymus - Absolute) was 1000 mg/kg-day and the NOEL (F, Organ weights_Thymus - Relative) was 1000 mg/kg-day. For the same molecule, the NOEL (F, Organ weights_Thyroid gland - Absolute) was 1000 mg/kg-day, the NOEL (F, Organ weights_Thyroid gland - Relative) was 1000 mg/kg-day and the NOEL (F, Survival rates) was 1000 mg/kg-day. It also gave an NOEL (F, body weight) of 1000 mg/kg-day, an LOEL (M, Clinical chemistry_Alanine aminotransferase) of 500 mg/kg-day and an LOEL (M, Clinical chemistry_Albumin) of 125 mg/kg-day. The LOEL (M, Clinical chemistry_Albumin/globulin ratio) was 250 mg/kg-day, the LOEL (M, Clinical chemistry_Alkaline phosphatase) was 500 mg/kg-day and the LOEL (M, Clinical chemistry_Aspartate aminotransferase) was 500 mg/kg-day. The LOEL (M, Clinical chemistry_Cholesterol) was 62.6 mg/kg-day, the NOEL (M, Clinical chemistry_Creatinine kinase) was 1000 mg/kg-day and the NOEL (M, Clinical chemistry_Direct bilirubin) was 1000 mg/kg-day. The LOEL (M, Clinical chemistry_Free thyroxine) was 62.6 mg/kg-day, the LOEL (M, Clinical chemistry_Globulin) was 125 mg/kg-day and the LOEL (M, Clinical chemistry_Sorbitol dehydrogenase) was 1000 mg/kg-day. The NOEL (M, Clinical chemistry_Testosterone) was 1000 mg/kg-day, the NOEL (M, Clinical chemistry_Thyroid stimulating hormone) was 1000 mg/kg-day and the LOEL (M, Clinical chemistry_Total bile acids) was 1000 mg/kg-day. For the same molecule, the LOEL (M, Clinical chemistry_Total protein) was 250 mg/kg-day, the LOEL (M, Clinical chemistry_Total thyroxine) was 62.6 mg/kg-day and the LOEL (M, Clinical chemistry_Total_triiodothyronine) was 62.6 mg/kg-day. It also gave an NOEL (M, Clinical chemistry_Triglycerides) of 1000 mg/kg-day, an LOEL (M, Gene expression_Acox1) of 500 mg/kg-day and an LOEL (M, Gene expression_Acyl-CoA oxidase) of 250 mg/kg-day. For the same molecule, the LOEL (M, Gene expression_Cyp2b1) was 62.6 mg/kg-day, the LOEL (M, Gene expression_Cyp2b2) was 62.6 mg/kg-day and the LOEL (M, Gene expression_Cyp4a1) was 62.6 mg/kg-day. The LOEL (M, Hematology_Erythrocytes) was 62.6 mg/kg-day, the LOEL (M, Hematology_Hematocrit) was 62.6 mg/kg-day and the LOEL (M, Hematology_Hemoglobin) was 62.6 mg/kg-day. The LOEL (M, Hematology_Mean corpuscular hemoglobin concentration) was 1000 mg/kg-day, the LOEL (M, Hematology_Mean corpuscular volume) was 250 mg/kg-day and the LOEL (M, Hematology_Platelets) was 500 mg/kg-day. It also gave an LOEL (M, Hematology_Reticulocytes) of 500 mg/kg-day, an NOEL (M, Nonneoplastic effects_Bone marrow - Hypocellularity) of 1000 mg/kg-day and an NOEL (M, Nonneoplastic effects_Epididymis - Duct, exfoliated germ cell) of 1000 mg/kg-day. The NOEL (M, Nonneoplastic effects_Epididymis - Epithelium, apoptosis) was 1000 mg/kg-day, the NOEL (M, Nonneoplastic effects_Epididymis - Hypospermia) was 1000 mg/kg-day and the NOEL (M, Nonneoplastic effects_Forestomach - Epithelium, hyperplasia) was 1000 mg/kg-day. The NOEL (M, Nonneoplastic effects_Forestomach - Inflammation, chronic active) was 1000 mg/kg-day, the NOEL (M, Nonneoplastic effects_Kidney - Nephropathy, chronic progressive) was 1000 mg/kg-day and the NOEL (M, Nonneoplastic effects_Liver - Hepatocyte, Necrosis) was 1000 mg/kg-day. It also gave an LOEL (M, Nonneoplastic effects_Liver - Hepatocyte, cytoplasmic alteration) of 1000 mg/kg-day, an LOEL (M, Nonneoplastic effects_Liver - Hepatocyte, hypertrophy) of 500 mg/kg-day and an NOEL (M, Nonneoplastic effects_Liver - Hepatocyte, vacuolization cytoplasmic) of 1000 mg/kg-day. The NOEL (M, Nonneoplastic effects_Lymph nodes - Mandibular, atrophy) was 1000 mg/kg-day, the NOEL (M, Nonneoplastic effects_Lymph nodes - Mesenteric, atrophy) was 1000 mg/kg-day and the LOEL (M, Nonneoplastic effects_Nose - Olfactory epithelium, degeneration) was 250 mg/kg-day. The LOEL (M, Nonneoplastic effects_Nose - Olfactory epithelium, hyperplasia) was 250 mg/kg-day, the LOEL (M, Nonneoplastic effects_Nose - Olfactory epithelium, inflammation, suppurative) was 1000 mg/kg-day and the NOEL (M, Nonneoplastic effects_Nose - Respiratory epithelium, hyperplasia) was 1000 mg/kg-day. It also gave an NOEL (M, Nonneoplastic effects_Nose - Respiratory epithelium, inflammation, chronic active) of 1000 mg/kg-day, an NOEL (M, Nonneoplastic effects_Spleen - Atrophy) of 1000 mg/kg-day and an LOEL (M, Nonneoplastic effects_Spleen - Extramedullary hematopoiesis, increased) of 500 mg/kg-day. The NOEL (M, Nonneoplastic effects_Testes - Germinal epithelium, degeneration) was 1000 mg/kg-day, the NOEL (M, Nonneoplastic effects_Testes - Interstitial cell, atrophy) was 1000 mg/kg-day and the NOEL (M, Nonneoplastic effects_Testes - Seminiferous tubule, spermatid retention) was 1000 mg/kg-day. It also gave an NOEL (M, Nonneoplastic effects_Thymus - Atrophy) of 1000 mg/kg-day, an NOEL (M, Nonneoplastic effects_Thymus - Lymphocyte, apoptosis) of 1000 mg/kg-day and an NOEL (M, Nonneoplastic effects_Thyroid gland - Follicular cell hypertrophy) of 1000 mg/kg-day. For the same molecule, the LOEL (M, Organ weights_Liver - Absolute) was 500 mg/kg-day, the LOEL (M, Organ weights_Liver - Relative) was 250 mg/kg-day and the NOEL (M, Organ weights_R. adrenal gland - Absolute) was 1000 mg/kg-day. For the same molecule, the NOEL (M, Organ weights_R. adrenal gland - Relative) was 1000 mg/kg-day, the NOEL (M, Organ weights_R. kidney - Absolute) was 1000 mg/kg-day and the LOEL (M, Organ weights_R. kidney - Relative) was 500 mg/kg-day. It also gave an NOEL (M, Organ weights_R. testis - Absolute) of 1000 mg/kg-day, an NOEL (M, Organ weights_Spleen - Absolute) of 1000 mg/kg-day and an NOEL (M, Organ weights_Spleen - Relative) of 1000 mg/kg-day. It also gave an LOEL (M, Organ weights_Thymus - Absolute) of 1000 mg/kg-day, an NOEL (M, Organ weights_Thymus - Relative) of 1000 mg/kg-day and an NOEL (M, Organ weights_Thyroid gland - Absolute) of 1000 mg/kg-day. It also gave an NOEL (M, Organ weights_Thyroid gland - Relative) of 1000 mg/kg-day, an LOEL (M, Reproductive toxicity_Altered sperm parameters) of 1000 mg/kg-day and an NOEL (M, Survival rates) of 1000 mg/kg-day. The LOEL (M, body weight) was 1000 mg/kg-day.
